Assay results reported in the NIST ThermoML archive (doi:10.1016/j.tca.2006.01.020).

Settings: 101.33 kPa, Crystal, Small (less than 1 g) adiabatic calorimetry

[Ba+2].[Ce+4].[O-2].[O-2].[O-2] [barium cerium(IV) oxide]
Settings	molar entropy [J/K/mol]
10 K	0.084
20 K	1.242
30 K	4.425
40 K	9.136
50 K	14.71
60 K	20.8
70 K	27.13
80 K	33.51
90 K	39.88
100 K	46.2
120 K	58.56
140 K	70.43
160 K	81.77
180 K	92.55
200 K	102.8
220 K	112.5
240 K	121.7
260 K	130.4
280 K	138.6
298.15 K	145.8
300 K	146.6

[Ba+2].[O-2].[O-2].[O-2].[Zr+4] [barium zirconium(IV) oxide]
Settings	molar entropy [J/K/mol]
10 K	0.053
20 K	0.666
30 K	2.753
40 K	6.284
50 K	10.7
60 K	15.67
70 K	20.91
80 K	26.27
90 K	31.67
100 K	37.05
120 K	47.64
140 K	57.88
160 K	67.72
180 K	77.16
200 K	86.23
220 K	94.92
240 K	103.2
260 K	111.2
280 K	118.8
298.15 K	125.5
300 K	126.2
